Patent publication US6964975B2, “Isoxazole and thiazole compounds and use thereof as medicine” (Kirin Beer Kabushiki Kaisha, priority 2000, dated 2005)

Columns and labels:
Human EDG-2/HepG2 cells = assay: Inhibitory activity on LPA-accelerated [3H] thymidine incorporation (cell proliferation); format: cell-based; conditions: 50% inhibition of LPA-induced increase of [3H] thymidine incorporation
Excerpt: (§1) The human EDG-2 expression plasmid was introduced into HepG2 cells by electroporation. After the introduction, culturing was continued while exchanging selective media every 3 to 4 days, thereby obtaining an expressed colony. Regarding these cells, Ca-influx and cell-proliferation by LPA, level of [^3H] LPA binding and the like were inspected to select a cell line which highly expresses human EDG-2 (human EDG-2/HepG2).
Human EDG-2/HepG2 cells suspended in 10% bovine serum-containing DMEM (Dulbecco's modified eagle medium) were plated on a 96-well plate and, on the next day, the medium was exchanged with serum-free DMEM. 24 hours later, the medium was exchanged with DMEM containing LPA or DMEM containing no LPA, cells were cultured for further 16 hours, and [^3H] thymidine was then added. After culturing for 8 hours subsequent to the addition of [^3H] thymidine, cells were washed with PBS (phosphate-buffered saline), and the amount of [^3H] thymidine incorporated into the cells were assayed by Betaplate filter counter system (Amersham Pharmacia Biotech). The difference between the amount of [^3H] thymidine incorporated in the LPA-added well and the amount of [^3H] thymidine incorporated in the well containing no LPA represents the amount of [^3H] thymidine incorporation accelerated by LPA. […] The test compounds were added immediately before the LPA addition.

human EDG-2 = target: T1, human EDG-2 (Homo sapiens, UniProt Q92633); assay: Inhibitory activity on LPA-induced elevation of intracellular Ca2+ level; format: cell-based; conditions: 50% inhibition of elevation of intracellular Ca2+ level by LPA, human EDG-2/HepG2 cells, fura-2
T1 construct: cDNA of the cloned human EDG-2 was introduced into pEFneo, which is an animal expression vector; expressed in transfected cells; host or cells: HepG2
T1 sequence (Q92633 whole entry): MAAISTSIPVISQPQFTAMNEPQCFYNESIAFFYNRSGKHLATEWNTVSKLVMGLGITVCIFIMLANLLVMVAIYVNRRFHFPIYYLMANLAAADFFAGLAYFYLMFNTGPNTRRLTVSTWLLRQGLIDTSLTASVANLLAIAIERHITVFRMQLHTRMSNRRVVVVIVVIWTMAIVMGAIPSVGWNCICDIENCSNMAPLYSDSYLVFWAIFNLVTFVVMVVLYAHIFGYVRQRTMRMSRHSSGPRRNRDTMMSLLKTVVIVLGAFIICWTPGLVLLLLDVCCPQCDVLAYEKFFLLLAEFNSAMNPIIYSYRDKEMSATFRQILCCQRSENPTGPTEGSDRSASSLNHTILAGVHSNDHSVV
Excerpt: as §1
Human EDG-2/HepG2 cells were washed and then suspended in 0.1% BSA (bovine serum albumin)-containing HEPES buffer. A fluorescent indicator, fura-2/AM (Wako Pure Chemical Industries, Ltd.), was added, and the mixture was shaken at room temperature for 45 minutes so that the indicator is included in the cell. Cells were washed again and then suspended in 0.1% BSA-containing HEPES buffer, and intracellular Ca^2+ level was assayed using FDSS2000 (Hamamatsu Photonics). […] Each test compound was added to the cell suspension followed by the addition of LPA, thereby examining the inhibitory activity of the test compound on the function of LPA for elevating the intracellular Ca level. […] The lower the IC50 value, the higher the antagonistic activity on the LPA receptor.

Compound | IC50 (Human EDG-2/HepG2 cells) [µM] | IC50 (human EDG-2) [µM]
Cc1onc(-c2ccccc2)c1NC(=O)OC(C)c1ccccc1Cl (stereo not shown) [Compound 4, 1-(2-Chlorophenyl)ethyl N-(5-methyl-3-phenyl-4-isoxazolyl)carbamate] | 1 | 3
Cc1onc(-c2ccccc2F)c1NC(=O)OC(C)c1ccccc1Cl (stereo not shown) [Compound 20, 1-(2-Chlorophenyl)ethyl N-[3-(2-fluorophenyl)-5-methyl-4-isoxazolyl]carbamate] | 1 | 3
Cc1noc(-c2ccco2)c1NC(=O)OC(C)c1ccccc1Cl (stereo not shown) [Compound 32, 1-(2-Chlorophenyl)ethyl N-[5-(2-furyl)-3-methyl-4-isoxazolyl]carbamate] | 1 | 3
Cc1noc(-c2ccncc2)c1NC(=O)OC(C)c1ccccc1Cl (stereo not shown) [Compound 62, 1-(2-Chlorophenyl)ethyl N-[3-methyl-5-(4-pyridyl)-4-isoxazolyl]carbamate] | 3 | 3
Cc1ccsc1-c1onc(C)c1NC(=O)OC(C)c1ccccc1Cl (stereo not shown) [Compound 67, 1-(2-Chlorophenyl)ethyl N-[3-methyl-5-(3-methyl-2-thienyl)-4-isoxazolyl]carbamate] | 1 | 3
Cc1noc(-c2ccnc(Cl)c2)c1NC(=O)OC(C)c1ccccc1Cl (stereo not shown) [Compound 71, 1-(2-Chlorophenyl)ethyl N-[5-(2-chloro-4-pyridyl)-3-methyl-4-isoxazolyl]carbamate] | 1 | 3
Cc1ccccc1CCOC(=O)Nc1c(-c2ccccc2)noc1C [Compound 95, 2-Methylphenethyl N-(5-methyl-3-phenyl-4-isoxazolyl)carbamate] |  | 30 to 100
Cc1onc(-c2ccccc2)c1NC(=O)OCCc1ccccc1 [Compound 96, Phenethyl N-(5-methyl-3-phenyl-4-isoxazolyl)carbamate] |  | 30 to 100
Cc1onc(-c2ccccc2)c1NC(=O)OC1CCc2ccccc21 (stereo not shown) [Compound 97, 2,3-Dihydro-1H-1-indenyl N-(5-methyl-3-phenyl-4-isoxazolyl)carbamate] |  | 30 to 100
Cc1onc(-c2ccccc2)c1NC(=O)OC1CCc2ccccc2C1 (stereo not shown) [Compound 98, 1,2,3,4-Tetrahydro-2-naphthalenyl N-(5-methyl-3-phenyl-4-isoxazolyl)carbamate] |  | 30 to 100
CCCCCOC(=O)Nc1c(-c2ccccc2)noc1C [Compound 99, Pentyl N-(5-methyl-3-phenyl-4-isoxazolyl)carbamate] |  | 30 to 100
Cc1onc(-c2ccccc2)c1NC(=O)OCCC(C)C [Compound 100, Isopentyl N-(5-methyl-3-phenyl-4-isoxazolyl)carbamate] |  | 30 to 100
CCCCC(C)OC(=O)Nc1c(-c2ccccc2)noc1C (stereo not shown) [Compound 101, 1-Methylpentyl N-(5-methyl-3-phenyl-4-isoxazolyl)carbamate] |  | 30 to 100
C=CCCCOC(=O)Nc1c(-c2ccccc2)noc1C [Compound 102, 4-Pentenyl N-(5-methyl-3-phenyl-4-isoxazolyl)carbamate] |  | 30 to 100
Cc1noc(-c2ccc(CSCc3ccco3)cc2)c1NC(=O)OC(C)c1ccccc1Cl (stereo not shown) [Compound 107, 1-(2-Chlorophenyl)ethyl N-[5-(4-{[(2-furylmethyl)sulfanyl]methyl}phenyl)-3-methyl-4-isoxazolyl]carbamate] | 0.03 to 0.1 | 3 to 10
Cc1noc(-c2cccc(CSCCO)c2)c1NC(=O)OC(C)c1ccccc1Cl (stereo not shown) [Compound 131, 1-(2-Chlorophenyl)ethyl N-[5-(3-{[(2-hydroxyethyl)sulfanyl]methyl}phenyl)-3-methyl-4-isoxazolyl]carbamate] |  | 3
CCc1noc(-c2ccc(CCl)cc2)c1NC(=O)OC(C)c1ccccc1F (stereo not shown) [Compound 160, 1-(2-Fluorophenyl)ethyl N-{5-[4-(chloromethyl)phenyl]-3-ethyl-4-isoxazolyl}carbamate] |  | 3 to 10

Now from value to compound:

IC50 (Human EDG-2/HepG2 cells) [µM] | IC50 (human EDG-2) [µM] | Compound
0.3 | 1 | Cc1noc(-c2ccc(C#N)cc2)c1NC(=O)OC(C)c1ccccc1Cl (stereo not shown) [Compound 47, 1-(2-Chlorophenyl)ethyl N-[5-(4-cyanophenyl)-3-methyl-4-isoxazolyl]carbamate]
0.3 | 10 | Cc1noc(-c2ccc(CNCCc3ccccn3)cc2)c1NC(=O)OC(C)c1ccccc1Cl (stereo not shown) [Compound 103]
3 | 10 to 30 | Cc1noc(-c2ccc(CNCC3CCCO3)cc2)c1NC(=O)OC(C)c1ccccc1Cl (stereo not shown) [Compound 104, 1-(2-Chlorophenyl)ethyl N-[3-methyl-5-(4-{[(tetrahydro-2-furanylmethyl)amino]-methyl}phenyl)-4-isoxazolyl]carbamate]
1 | 10 to 30 | Cc1noc(-c2ccc(CNCc3ccccn3)cc2)c1NC(=O)OC(C)c1ccccc1Cl (stereo not shown) [Compound 105, 1-(2-Chlorophenyl)ethyl N-[3-methyl-5-(4-{[(2-pyridylmethyl)amino]methyl}-phenyl)-4-isoxazolyl]carbamate]
1 to 3 | 3 to 10 | Cc1noc(-c2ccc(CNCc3ccco3)cc2)c1NC(=O)OC(C)c1ccccc1Cl (stereo not shown) [Compound 106, 1-(2-Chlorophenyl)ethyl N-[5-(4-{[(2-furylmethyl)amino]methyl}phenyl)-3-methyl-4-isoxazolyl]carbamate]
0.1 to 0.3 | 3 to 10 | CCSCc1ccc(-c2onc(C)c2NC(=O)OC(C)c2ccccc2Cl)cc1 (stereo not shown) [Compound 108, 1-(2-Chlorophenyl)ethyl N-(5-{4-[(ethylsulfanyl)methyl]phenyl}-3-methyl-4-isoxazolyl)carbamate]
1 to 3 | 10 to 30 | CCCCCNCc1ccc(-c2onc(C)c2NC(=O)OC(C)c2ccccc2Cl)cc1 (stereo not shown) [Compound 109, 1-(2-Chlorophenyl)ethyl N-(3-methyl-5-{4-[(pentylamino)methyl]phenyl}-4-isoxazolyl)carbamate]
0.3 to 1 | 10 to 30 | Cc1noc(-c2ccc(CNCCc3cccnc3)cc2)c1NC(=O)OC(C)c1ccccc1Cl (stereo not shown) [Compound 110, 1-(2-Chlorophenyl)ethyl N-{3-methyl-5-[4-({[2-(3-pyridyl)ethyl]amino}methyl)-phenyl]-4-isoxazolyl}carbamate]
1 to 3 | 10 to 30 | Cc1noc(-c2ccc(CNCCc3ccncc3)cc2)c1NC(=O)OC(C)c1ccccc1Cl (stereo not shown) [Compound 111, 1-(2-Chlorophenyl)ethyl N-{3-methyl-5-[4-({[2-(4-pyridyl)ethyl]amino}methyl)phenyl]-4-isoxazolyl}carbamate]
0.3 to 1 | 10 to 30 | Cc1noc(-c2ccc(CNCCF)cc2)c1NC(=O)OC(C)c1ccccc1Cl (stereo not shown) [Compound 112, 1-(2-Chlorophenyl)ethyl N-[5-(4-{[(2-fluoroethyl)amino]methyl}phenyl)-3-methyl-4-isoxazolyl]carbamate]
0.1 to 0.3 | 10 to 30 | CCOC(=O)CCNCc1ccc(-c2onc(C)c2NC(=O)OC(C)c2ccccc2Cl)cc1 (stereo not shown) [Compound 113, Ethyl 3-({4-[4-({[1-(2-chlorophenyl)ethoxy]carbonyl}amino)-3-methyl-5-isoxazolyl]-benzyl}amino)propanoate]
0.3 to 1 | 10 to 30 | Cc1cnc(CNCc2ccc(-c3onc(C)c3NC(=O)OC(C)c3ccccc3Cl)cc2)cn1 (stereo not shown) [Compound 114, 1-(2-Chlorophenyl)ethyl N-{3-methyl-5-[4-({[(5-methyl-2-pyrazyl)methyl]amino}-methyl)phenyl]-4-isoxazoly}carbamate]
0.3 to 1 | 30 to 100 | CCNCc1ccc(-c2onc(C)c2NC(=O)OC(C)c2ccccc2Cl)cc1 (stereo not shown) [Compound 116, 1-(2-Chlorophenyl)ethyl N-(5-{4-[(ethylamino)methyl]phenyl}-3-methyl-4-isoxazolyl)-carbamate]
0.03 to 0.1 | 3 to 10 | CCCSCc1ccc(-c2onc(C)c2NC(=O)OC(C)c2ccccc2Cl)cc1 (stereo not shown) [Compound 117, 1-(2-Chlorophenyl)ethyl N-(3-methyl-5-{4-[(propylsulfanyl)methyl]phenyl}-4-isoxazolyl)-carbamate]
0.1 to 0.3 | 1 to 3 | COC(=O)CSCc1ccc(-c2onc(C)c2NC(=O)OC(C)c2ccccc2Cl)cc1 (stereo not shown) [Compound 118, Methyl 2-({4-[4-({[1-(2-chlorophenyl)ethoxy]carbonyl}-amino)-3-methyl-5-isoxazolyl]-benzyl}-sulfanyl)acetate]
 | 3 to 10 | Cc1noc(-c2ccc(CCl)cc2)c1NC(=O)OC(C)c1ccccc1F (stereo not shown) [Compound 155, 1-(2-Fluorophenyl)ethyl N-{5-[4-(chloromethyl)phenyl]-3-methyl-4-isoxazolyl}carbamate]
